{
  "source": "paper PMC5542402",
  "about": "(Combinatorial chemistry & high throughput screening, 2016)",
  "molecular_target": "PhoP (Mycobacterium tuberculosis, UniProt P71814)",
  "format": "binding",
  "data": [
    {"smiles": "[N-]=[N+]=Nc1ccc(C(=O)CSC[C@H](NC(=O)CC[C@H](N)C(=O)O)C(=O)NCC(=O)O)cc1", "note": "[NCGC00093547]", "values": [
      {"measurement": "Kd", "value": 12.6, "unit": "µM"}
    ]}
  ]
}
